The values below are quoted from earlier work in patent publication US20220184102A1, “COMPOSITIONS AND METHODS FOR TREATING AGE-RELATED MACULAR DEGENERATION” (priority 2019, published 2022).

Data set [1] concerns early seropositive rheumatoid arthritis. The following applies: 20 mg twice-daily (subantimicrobial dose) plus MTX.
In another data set the test system is chronic periodontitis. The following applies: 20 mg twice daily, two years.
The test system of another data set is intestinal flora. The following applies: 20 mg twice-daily for 9 months.
Data set [2] relates to neovascular exudative AMD. Conditions: oral minocycline combined with reduced-fluence PDT, intravitreal ranibizumab, intravitreal dexamethasone.

`C[C@H]1c2cccc(O)c2C(=O)C2=C(O)[C@]3(O)C(=O)C(C(N)=O)=C(O)[C@@H](N(C)C)[C@@H]3[C@@H](O)[C@@H]21` [doxycycline]: in data set [1], the “number of adverse events versus placebo group” value is on record as “equivalent”. In addition, in the data set on chronic periodontitis, the microbiological resistance result is reported as “no sign of microbiological resistance” and the safety issues result is “no significant safety issues”. In the data set on intestinal flora, the “antibacterial effect on intestinal flora” value is “no antibacterial effect”. Further, the tolerability entry in the data set on adult periodontitis (10 mg daily, 20 mg daily or 20 mg twice daily, 9-12 months) is on record as “well-tolerated”. Further, the resistance to doxycycline entry with adult periodontitis (during the course of the study) is given as “no resistance developed”. Moreover, the “liver or kidney function tests versus control group” value with adult periodontitis (treatment groups) was “No clinically significant differences”.
Consider `CN(C)c1ccc(O)c2c1C[C@H]1C[C@H]3[C@H](N(C)C)C(O)=C(C(N)=O)C(=O)[C@@]3(O)C(O)=C1C2=O` [minocycline], for which the “levels in the brain relative to doxycycline at the same dose” value is roughly 3 fold. The safety concerns entry in data set [2] is “No safety concerns were identified”.
